Experimental data published in US20220184222A1, “BICYCLE TOXIN CONJUGATES AND USES THEREOF” (BicycleTx Limited, priority 2019, published 2022).
Starred links: 1 amine or outer side, 2 acyl side, 3 side chain; linkers in the order of their positions; H or OH if unused. Non-standard residues stand in square brackets, D forms with d. Residues, ends and D or L forms follow the SMILES beside them. *: point of attachment. Dolaproine = CO[C@@H]([C@@H]1CCCN1)[C@@H](C)C(=O)O; Dil = CC[C@H](C)[C@H](NC)[C@@H](CC(=O)O)OC; PABC = O=C(OCc1ccc(N[*:1])cc1)[*:2]; X1 = O=C(CCCC(=O)*)ON1C(=O)CCC1=O; X2 = C[C@@H](N*)[C@@H](O)c1ccccc1; Cit = NC(=O)NCCC[C@H](N)C(=O)O; NMeV = CN[C@H](C(=O)O)C(C)C

Test system: CTG-0178
Assay: Champions TumorGraft NSCLC PDX efficacy, model CTG-0178
Assay type: in vivo, Mus musculus
Experimental: Mice were implanted subcutaneously into the left flank with tumor fragments from one of the various models. After tumors grew to an average of 150-300 mm^3, mice were treated by IV administration Q7Dx4 (n=2) with vehicle or 3 mg/kg of BT5528. Effects on tumor growth were evaluated by measuring percent tumor growth inhibition (% TGI), and the number of complete responders (CR), partial responders (PR), and tumor-free survivors (TFS). Tolerability was assessed by body weight loss, lethality, and clinical signs of adverse treatment-related side effects. Tumor volumes and body weights were measured twice a week.
Dosing solutions of BT5528 […] were pre-formulated. These dosing solutions were stored at −80° C. in the dark. On each day of dosing, a frozen aliquot of each test agent was thawed, stored at 2-8° C. and used for dosing.
The animals used in this study are described below: • Species: Mus musculus • Strain: Athymic Nude-Foxn1^nu (immune-compromised) • Source: Envigo (Indianapolis, Ind., USA) • Number of animals per group: 2 • Age and sex: At least 6-8 weeks of age at start of dosing, female • Weight: At least 18 grams at start of dosing • Acclimation period: 3 days
Stock mice were implanted with tumor cells from Champions TumorGraft® models CTG-0160, CTG-0170, CTG-0178, CTG-0192, CTG-0363, CTG-0808, CTG-0838, CTG-0848, CTG-1212, CTG-1502, CTG-1535, CTG-2011, CTG-2393, CTG-2539 or CTG-2540. After the tumors reached 1000-1500 mm^3, they were harvested and the tumor fragments (approximately 5×5×5 mm^3) were implanted SC in the left flank of the female study mice. Each animal was implanted with a specific passage lot and documented. Tumor growth was monitored twice a week using digital calipers and the tumor volume (TV) was calculated using the formula (0.52×[length×width^2]). When the TV reached an average volume of 150-300 mm^3, animals were matched by tumor size and assigned into Vehicle Control and treatment groups (n=2/group) and dosing was initiated on Day 0. After the initiation of dosing on Day 0, animals were weighed twice per week using a digital scale and TV was measured twice per week and also on the final day of study. The study was completed when the mean tumor volume of Vehicle Control reached 1500 mm^3 or up to Day 60, whichever occurred first.
Beginning on Day 0, animals were observed daily and weighed twice weekly using a digital scale; data including individual and mean gram weights, mean percent weight change versus Day 0 (% vD0) were recorded for each group and % vD0 plotted at study completion. […] Treatment resulting in a mean % vD0>20% and/or >10% mortality was considered above the maximum tolerated dose. Maximum mean % vD0 (weight nadir) for each treatment group was reported at study completion.
Inhibition of tumor growth was determined by calculating the percent TGI (100%×[1−(final MTV−initial MTV of a treated group)/(final MTV−initial MTV of the control group)]). Treatment started on Day 0.
Additional endpoints used to evaluate efficacy were: the number of complete responders (CR), partial responders (PR), and tumor-free survivors (TFS). PRs were considered exclusive of CRs, as were TFS.
Statistical analyses of anti-tumor efficacy were performed using one-way ANOVA followed by Dunnett's multiple comparisons test (GraphPad Prism version 8.2.0). Significant p-values=<0.05.
Animals were dosed according to the schedule on Table 7-1. The study was terminated on Day 28.

[1] = CTG-0178, 3 mg/kg IV Q7Dx4, Day 0-28

Structure (SMILES): CC[C@H](C)[C@@H]([C@@H](CC(=O)N1CCC[C@H]1[C@H](OC)[C@@H](C)C(=O)N[C@H](C)[C@@H](O)c1ccccc1)OC)N(C)C(=O)[C@@H](NC(=O)[C@H](C(C)C)N(C)C(=O)OCc1ccc(NC(=O)[C@H](CCCNC(N)=O)NC(=O)[C@@H](NC(=O)CCCC(=O)ON2C(=O)CCC2=O)C(C)C)cc1)C(C)C [BT5528] (X1-V[Cit][PABC][NMeV]V[Dil][Dolaproine]-X2)
- mean body weight loss (3 mg/kg IV Q7Dx4): minor mean body weight losses on Day 18
- MTV (mean tumor volume) (3 mg/kg IV Q7Dx4, Day 28): 1145±271 mm^3
- TGI (3 mg/kg IV Q7Dx4, Day 28): 16%
- # CR (complete responders) [1]: 0/0/0
- # PR (partial responders) [1]: 0/0/0
- # TFS (tumor-free survivors) [1]: 0/0/0
- % TGI (CTG-0178, 3 mg/kg IV Q7Dx4, Day 28): 16%
- Day 28 Tumor Volume Mean TV ± SEM (CTG-0178, BT5528 3 mg/kg IV Q7Dx4, Day 28, n=2): 1145 ± 271 mm^3
